Measured values published in ChEMBL document CHEMBL6092171, “Discovery of Propionic Acid Derivatives with a 5-THIQ Core as Potent and Orally Bioavailable Keap1-Nrf2 Protein-Protein Interaction Inhibitors for Acute Kidney Injury” (J Med Chem, 2024).

Key:
Type in all cases: ADME, organism-based
[1] = Oral bioavailability in Sprague-Dawley rat at 5 mg/kg measured upto 24 hrs by LC-MS/MS analysis; details: in vivo
[2] = Half life in Sprague-Dawley rat at 5 mg/kg, po measured upto 24 hrs by LC-MS/MS analysis; details: in vivo
[3] = AUC (0 to t) in Sprague-Dawley rat at 5 mg/kg, po measured upto 24 hrs by LC-MS/MS analysis; details: in vivo
[4] = Apparent clearance during terminal phase in Sprague-Dawley rat at 5 mg/kg, po measured upto 24 hrs by LC-MS/MS analysis; details: in vivo
[5] = MRT (0 to t) in Sprague-Dawley rat at 1 mg/kg, iv measured upto 24 hrs by LC-MS/MS analysis; details: in vivo
[6] = AUC (0 to t) in Sprague-Dawley rat at 1 mg/kg, iv measured upto 24 hrs by LC-MS/MS analysis; details: in vivo
[7] = Drug distribution in Sprague-Dawley rat kidney at 5 mg/kg, po; details: in vivo
[8] = Cmax in Sprague-Dawley rat at 1 mg/kg, iv measured upto 24 hrs by LC-MS/MS analysis; details: in vivo
[9] = AUC (0 to infinity) in Sprague-Dawley rat at 5 mg/kg, po measured upto 24 hrs by LC-MS/MS analysis; details: in vivo
[10] = Half life in Sprague-Dawley rat at 1 mg/kg, iv measured upto 24 hrs by LC-MS/MS analysis; details: in vivo
[11] = Volume of distribution in Sprague-Dawley rat at 1 mg/kg, iv measured upto 24 hrs by LC-MS/MS analysis; details: in vivo, read-out: Vz
[12] = Tmax in Sprague-Dawley rat at 5 mg/kg, po measured upto 24 hrs by LC-MS/MS analysis; details: in vivo
[13] = MRT (0 to infinity) in Sprague-Dawley rat at 1 mg/kg, iv measured upto 24 hrs by LC-MS/MS analysis; details: in vivo
[14] = Cmax in Sprague-Dawley rat at 5 mg/kg, po measured upto 24 hrs by LC-MS/MS analysis; details: in vivo
[15] = Volume of distribution in Sprague-Dawley rat at 5 mg/kg, po measured upto 24 hrs by LC-MS/MS analysis; details: in vivo
[16] = AUC (0 to infinity) in Sprague-Dawley rat at 1 mg/kg, iv measured upto 24 hrs by LC-MS/MS analysis; details: in vivo
[17] = MRT (0 to infinity) in Sprague-Dawley rat at 5 mg/kg, po measured upto 24 hrs by LC-MS/MS analysis; details: in vivo
[18] = MRT (0 to t) in Sprague-Dawley rat at 5 mg/kg, po measured upto 24 hrs by LC-MS/MS analysis; details: in vivo

bioavailability [1]: 20% | half-life [2]: 1.36 h | AUC(0-t) at 24 h [3]: 0.265 µg·h/mL | CL/F [4]: 23 L/h/kg | MRT last at 24 h [5]: 0.39 h | AUC(0-t) at 24 h [6]: 0.267 µg·h/mL | Drug uptake [7]: Active | Cmax [8]: 1.64 µg/mL | AUC(0-inf) [9]: 0.266 µg·h/mL | half-life [10]: 1.19 h | Vd [11]: 6.49 L/kg | Tmax [12]: 0.29 h | MRT inf [13]: 0.44 h | Cmax [14]: 0.186 µg/mL | Vz [15]: 46.52 L/kg | AUC(0-inf) [16]: 0.268 µg·h/mL | MRT inf [17]: 1.85 h | MRT last at 24 h [18]: 1.77 h
Structure (SMILES): COc1cc(C(CC(=O)O)c2cccc3c2CCN(C(=O)c2ccc(OC(C)C)cc2Cl)C3)cc2nnn(C)c12 (stereo not drawn)
